Active and inactive are the calls of the source. The rule behind the calls is not given here.
Legend:
Assay type in all cases: functional
UO-31 = assay: Growth inhibition of human UO31 cells assessed as cell growth at 10^-6 M by sulforhodamine B assay; conditions: read-out: Activity
SNB-19 = assay: Growth inhibition of human SNB19 cells assessed as cell growth at 10^-8 M by sulforhodamine B assay; conditions: read-out: Activity
NCI-H522 = assay: Growth inhibition of human NCI-H522 cells assessed as cell growth at 10^-4 M by sulforhodamine B assay; conditions: read-out: Activity
Hs-578T = assay: Growth inhibition of human Hs 578T cells assessed as growth inhibition at 10 uM by sulforhodamine B assay
SF-268 = assay: Growth inhibition of human SF268 cells assessed as cell growth at 10^-4 M by sulforhodamine B assay; conditions: read-out: Activity
HCT-116 = assay: Growth inhibition of human HCT116 cells assessed as cell growth at 10^-8 M by sulforhodamine B assay; conditions: read-out: Activity
CCRF-CEM [1] = assay: Growth inhibition of human CCRF-CEM cells assessed as cell growth at 10^-4 M by sulforhodamine B assay; conditions: read-out: Activity
LOX IMVI = assay: Growth inhibition of human LOXIMVI cells assessed as cell growth at 10^-7 M by sulforhodamine B assay; conditions: read-out: Activity
SNB-75 = assay: Growth inhibition of human SNB75 cells assessed as cell growth at 10^-6 M by sulforhodamine B assay; conditions: read-out: Activity
MDA-MB-468 [2] = assay: Growth inhibition of human MDA-MB-468 cells by sulforhodamine B assay
HT-29 = assay: Growth inhibition of human HT-29 cells by sulforhodamine B assay
SW-620 [3] = assay: Growth inhibition of human SW620 cells assessed as cell growth at 10^-4 M by sulforhodamine B assay; conditions: read-out: Activity
[4] = Growth inhibition of human NCI-ADR-RES cells assessed as cell growth at 10^-7 M by sulforhodamine B assay; conditions: read-out: Activity
UACC-62 = assay: Growth inhibition of human UACC62 cells by sulforhodamine B assay
NCI-H226 [5] = assay: Growth inhibition of human NCI-H226 cells assessed as cell growth at 10^-4 M by sulforhodamine B assay; conditions: read-out: Activity
SN12C = assay: Growth inhibition of human SN12C cells assessed as cell growth at 10^-8 M by sulforhodamine B assay; conditions: read-out: Activity
MOLT-4 [6] = assay: Growth inhibition of human MOLT4 cells assessed as cell growth at 10^-7 M by sulforhodamine B assay; conditions: read-out: Activity
NCI-H23 = assay: Growth inhibition of human NCI-H23 cells assessed as cell growth at 10^-8 M by sulforhodamine B assay; conditions: read-out: Activity
SK-MEL-5 = assay: Growth inhibition of human SK-MEL-5 cells assessed as cell growth at 10^-7 M by sulforhodamine B assay; conditions: read-out: Activity
K562 = assay: Growth inhibition of human K562 cells assessed as cell growth at 10^-4 M by sulforhodamine B assay; conditions: read-out: Activity
M14 = assay: Growth inhibition of human M14 cells assessed as cell growth at 10^-4 M by sulforhodamine B assay; conditions: read-out: Activity
RXF 393 = assay: Growth inhibition of human RXF393 cells assessed as cell growth at 10^-6 M by sulforhodamine B assay; conditions: read-out: Activity
MOLT-4 [7] = assay: Growth inhibition of human MOLT4 cells assessed as cell growth at 10^-8 M by sulforhodamine B assay; conditions: read-out: Activity
NCI-H322M = assay: Growth inhibition of human NCI-H322M cells assessed as cell growth at 10^-6 M by sulforhodamine B assay; conditions: read-out: Activity
[8] = Growth inhibition of human Hs 578T cells assessed as cell growth at 10^-6 M by sulforhodamine B assay; conditions: read-out: Activity
CCRF-CEM [9] = assay: Growth inhibition of human CCRF-CEM cells assessed as cell growth at 10^-6 M by sulforhodamine B assay; conditions: read-out: Activity
SW-620 [10] = assay: Growth inhibition of human SW620 cells assessed as cell growth at 10^-8 M by sulforhodamine B assay; conditions: read-out: Activity
HL-60(TB) = assay: Growth inhibition of human HL-60(TB) cells by sulforhodamine B assay
PC-3 = assay: Growth inhibition of human PC3 cells assessed as cell growth at 10^-6 M by sulforhodamine B assay; conditions: read-out: Activity
KM12 = assay: Growth inhibition of human KM12 cells assessed as cell growth at 10^-4 M by sulforhodamine B assay; conditions: read-out: Activity
MDA-MB-468 [11] = assay: Growth inhibition of human MDA-MB-468 cells assessed as cell growth at 10^-4 M by sulforhodamine B assay; conditions: read-out: Activity
OVCAR-3 = assay: Growth inhibition of human OVCAR3 cells assessed as cell growth at 10^-8 M by sulforhodamine B assay; conditions: read-out: Activity
HCT-15 = assay: Growth inhibition of human HCT15 cells assessed as cell growth at 10^-6 M by sulforhodamine B assay; conditions: read-out: Activity
A498 = assay: Growth inhibition of human A498 cells assessed as cell growth at 10^-4 M by sulforhodamine B assay; conditions: read-out: Activity
NCI-H226 [12] = assay: Growth inhibition of human NCI-H226 cells assessed as cell growth at 10^-6 M by sulforhodamine B assay; conditions: read-out: Activity
SR = assay: Growth inhibition of human SR cells assessed as cell growth at 10^-7 M by sulforhodamine B assay; conditions: read-out: Activity
RPMI-8226 = assay: Growth inhibition of human RPMI8226 cells assessed as cell growth at 10^-7 M by sulforhodamine B assay; conditions: read-out: Activity
OVCAR-5 = assay: Growth inhibition of human OVCAR5 cells assessed as cell growth at 10^-6 M by sulforhodamine B assay; conditions: read-out: Activity
[13] = read-out: LC50 (the source's name)
[14] = read-out: pLC50 (the source's name) (converted)

`C/C=C(/C)C(=O)O[C@@H]1CC(C)(C)C[C@H]2C3=CC[C@@H]4[C@@]5(C)CC[C@H](O)C(C)(C)[C@@H]5CC[C@@]4(C)[C@]3(C)CC[C@@]12C(=O)O` [Reduced Lantadene A] showed a growth at 1 µM (UO-31) of 89%, a growth at 0.01 µM (SNB-19) of 90% and a growth at 100 µM (NCI-H522) of -66%. For the same compound, the “growth inhibition (GI)” value (Hs-578T) was “Active”, the growth at 100 µM (SF-268) was -34% and the growth at 0.01 µM (HCT-116) was 97%. It also gave a growth at 100 µM (CCRF-CEM [1]) of -2%, a growth at 0.1 µM (LOX IMVI) of 100% and a growth at 1 µM (SNB-75) of 76%. It also gave a GI50 (MDA-MB-468 [2]; read-out: GI50) of 1.68 µM, a CC50 (MDA-MB-468 [2]; [13]) of 7.86 µM and a TGI (MDA-MB-468 [2]; read-out: TGI) of 3.64 µM. The GI50 (MDA-MB-468 [2]; read-out: pGI50 (converted)) was 1.7 µM, the CC50 (MDA-MB-468 [2]; [14]) was 7.94 µM and the TGI (MDA-MB-468 [2]; read-out: pTGI (converted)) was 3.63 µM. It also gave a GI50 (HT-29; read-out: GI50) of 2.16 µM, an LC50 (50% cell kill) (HT-29; read-out: LC50) of 8.77 µM and a TGI (HT-29; read-out: TGI) of 4.35 µM. The GI50 (HT-29; read-out: pGI50 (converted)) was 2.14 µM, the LC50 (50% cell kill) (HT-29; read-out: pLC50 (converted)) was 8.71 µM and the TGI (HT-29; read-out: pTGI (converted)) was 4.37 µM. For the same compound, the growth at 100 µM (SW-620 [3]) was -32%, the growth at 0.1 µM [4] was 105% and the GI50 (UACC-62; read-out: GI50) was 1.56 µM. For the same compound, the CC50 (UACC-62; [13]) was 7.83 µM, the TGI (UACC-62; read-out: TGI) was 3.5 µM and the GI50 (UACC-62; read-out: pGI50 (converted)) was 1.55 µM. The CC50 (UACC-62; [14]) was 7.76 µM, the TGI (UACC-62; read-out: pTGI (converted)) was 3.47 µM and the growth at 100 µM (NCI-H226 [5]) was -73%. For the same compound, the growth at 0.01 µM (SN12C) was 96%, the growth at 0.1 µM (MOLT-4 [6]) was 98% and the growth at 0.01 µM (NCI-H23) was 101%. The growth at 0.1 µM (SK-MEL-5) was 92%, the growth at 100 µM (K562) was -2% and the growth at 100 µM (M14) was -48%. The growth at 1 µM (RXF 393) was 87%, the growth at 0.01 µM (MOLT-4 [7]) was 103% and the growth at 1 µM (NCI-H322M) was 93%. It also gave a growth at 1 µM [8] of 92%, a growth at 1 µM (CCRF-CEM [9]) of 90% and a growth at 0.01 µM (SW-620 [10]) of 99%. For the same compound, the GI50 (HL-60(TB); read-out: GI50) was 2.19 µM, the CC50 (HL-60(TB); [13]) was > 100 µM and the TGI (HL-60(TB); read-out: TGI) was 4.9 µM. The GI50 (HL-60(TB); read-out: pGI50 (converted)) was 2.19 µM, the CC50 (HL-60(TB); [14]) was > 100 µM and the TGI (HL-60(TB); read-out: pTGI (converted)) was 4.9 µM. The growth at 1 µM (PC-3) was 70%, the growth at 100 µM (KM12) was -29% and the growth at 100 µM (MDA-MB-468 [11]) was -86%. The growth at 0.01 µM (OVCAR-3) was 106%, the growth at 1 µM (HCT-15) was 82% and the growth at 100 µM (A498) was -74%. It also gave a growth at 1 µM (NCI-H226 [12]) of 83%, a growth at 0.1 µM (SR) of 81% and a growth at 0.1 µM (RPMI-8226) of 92%. The growth at 1 µM (OVCAR-5) was 113%.

From ChEMBL document CHEMBL2413072, “Synthesis and in vitro anticancer studies of novel C-2 arylidene congeners of lantadenes” (2013)
